Measurements as given in patent US9302999B2, “Substituted triazoles as herbicides” (E. I. DU PONT DE NEMOURS AND COMPANY, priority 2012, dated 2016).

Assays:
Type in all cases: in vivo
[1] = test system: barnyardgrass (Echinochloa crus-galli); assay: Test B flooded paddy: barnyardgrass; details: Flood, applied to paddy water at 2-leaf stage, visually evaluated after 13 to 15 days
How it was run: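 Each compound is applied to the floodwater of pots holding 2-leaf seedlings, water standing 3 cm over the soil throughout. Plants stay in a greenhouse 13 to 15 days before visual scoring against controls from 0 (no effect) to 100 (complete control).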

corn (Zea mays) = assay: Test A pre-/postemergence: corn
How it was run: (§1)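 Plants in loam–sand blend were treated with test chemicals in non-phytotoxic solvent with surfactant, either as preemergence directed soil spray or postemergence at 2–10 cm, one- to two-leaf stage. After about ten days in greenhouse, injury was rated visually against untreated controls on a 0–100 scale (100 = complete control).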

[2] = test system: crabgrass, large (large crabgrass, Digitaria sanguinalis); assay: Test A pre-/postemergence: crabgrass, large
How it was run: as §1

[3] = test system: foxtail, giant (giant foxtail, Setaria faberii); assay: Test A pre-/postemergence: foxtail, giant
How it was run: as §1

[4] = test system: wheat (Triticum aestivum); assay: Test A pre-/postemergence: wheat
How it was run: as §1

rice (Oryza sativa) = assay: Test B flooded paddy: rice; details: Flood, applied to paddy water at 2-leaf stage, visually evaluated after 13 to 15 days
Experimental: (§2) Seeds selected from rice (Oryza sativa), sedge, umbrella (small-flower umbrella sedge Cyperus difformis), ducksalad (Heteranthera limosa), and barnyardgrass (Echinochloa crus-galli) were grown to the 2-leaf stage for testing. At time of treatment, test pots were flooded to 3 cm above the soil surface, treated by application of test compounds directly to the paddy water, and then maintained at that water depth for the duration of the test.
(§3) Treated plants and controls were maintained in a greenhouse for 13 to 15 days, after which time all species were compared to controls and visually evaluated. Plant response ratings, summarized in Table B, are based on a scale of 0 to 100 where 0 is no effect and 100 is complete control. A dash (-) response means no test result.

[5] = test system: pigweed (Amaranthus retroflexus); assay: Test A pre-/postemergence: pigweed
How it was run: as §1

[6] = test system: barnyardgrass (Echinochloa crus-galli); assay: Test A pre-/postemergence: barnyardgrass
How it was run: as §1

[7] = test system: velvetleaf (Abutilon theophrasti); assay: Test A pre-/postemergence: velvetleaf
How it was run: as §1

[8] = test system: ducksalad (Heteranthera limosa); assay: Test B flooded paddy: ducksalad; details: Flood, applied to paddy water at 2-leaf stage, visually evaluated after 13 to 15 days
Experimental: as §2, §3

[9] = test system: morningglory (Ipomoea spp.); assay: Test A pre-/postemergence: morningglory
How it was run: as §1

[10] = test system: sedge, umbrella (small-flower umbrella sedge Cyperus difformis); assay: Test B flooded paddy: sedge, umbrella; details: Flood, applied to paddy water at 2-leaf stage, visually evaluated after 13 to 15 days
Experimental: as §2, §3

[11] = Postemergence, 125 g ai/ha, 0 to 100 scale, 0 is no effect, 100 is complete control
[12] = Postemergence, 500 g ai/ha, 0 to 100 scale, 0 is no effect, 100 is complete control
[13] = Preemergence, 125 g ai/ha, 0 to 100 scale where 0 is no effect and 100 is complete control
[14] = Preemergence, 500 g ai/ha, 0 to 100 scale (0 no effect, 100 complete control)
[15] = Postemergence, 500 g ai/ha, visual rating on 0 to 100 scale (0 no effect, 100 complete control), approximately ten days
[16] = Preemergence, 125 g ai/ha, 0 to 100 scale (0 no effect, 100 complete control)
[17] = Preemergence, 500 g ai/ha, 0 to 100 scale, 0 is no effect, 100 is complete control
[18] = Postemergence, 1000 g ai/ha, visual rating on 0 to 100 scale (0 no effect, 100 complete control), approximately ten days
[19] = Preemergence, 1000 g ai/ha, 0 to 100 scale, 0 is no effect, 100 is complete control

CC(C)(C)c1nn(-c2ccc(F)cc2)nc1Cc1ccnc(C(F)(F)F)c1 [Compound 176]
Plant response rating, Barnyardgrass (0 to 100 scale, 0 is no effect, 100 is complete control) ([1]; 125 g ai/ha): 0 | Plant response rating, Corn (corn (Zea mays); [11]): 0 | Corn plant response rating (corn (Zea mays); [12]): 0 | Plant response rating, Corn (corn (Zea mays); [13]): 0 | Plant response rating, Corn (corn (Zea mays); [14]): 0 | Plant response rating, Crabgrass, Large [2, 11]: 0 | Crabgrass, Large plant response rating [2, 12]: 0 | Plant response rating, Crabgrass, Large [2, 13]: 0 | Plant response rating, Crabgrass, Large [2, 14]: 0 | Plant response rating, Foxtail, Giant [3, 11]: 0 | Foxtail, Giant plant response rating [3, 12]: 0 | Plant response rating, Foxtail, Giant [3, 13]: 0 | Plant response rating, Foxtail, Giant [3, 14]: 0 | Plant response rating, Wheat [4, 11]: 0 | Wheat plant response rating [4, 12]: 0 | Plant response rating, Wheat [4, 13]: 0 | Plant response rating, Wheat [4, 14]: 0 | Plant response rating, Rice (0 to 100 scale, 0 is no effect, 100 is complete control) (rice (Oryza sativa); 125 g ai/ha): 0 | Plant response rating, Pigweed [5, 11]: 0 | Pigweed plant response rating [5, 12]: 0 | Plant response rating, Pigweed [5, 13]: 0 | Plant response rating, Pigweed [5, 14]: 0 | Plant response rating, Barnyardgrass [6, 11]: 0 | Barnyardgrass plant response rating [6, 12]: 0 | Plant response rating, Barnyardgrass [6, 13]: 0 | Plant response rating, Barnyardgrass [6, 14]: 0 | Plant response rating, Velvetleaf [7, 11]: 0 | Velvetleaf plant response rating [7, 12]: 0 | Plant response rating, Velvetleaf [7, 13]: 0 | Plant response rating, Velvetleaf [7, 14]: 0 | Plant response rating, Ducksalad (0 to 100 scale, 0 is no effect, 100 is complete control) ([8]; 125 g ai/ha): 0 | Plant response rating, Morningglory [9, 11]: 0 | Morningglory plant response rating [9, 12]: 0 | Plant response rating, Morningglory [9, 13]: 0 | Plant response rating, Morningglory [9, 14]: 0 | Plant response rating, Sedge, Umbrella (0 to 100 scale, 0 is no effect, 100 is complete control) ([10]; 125 g ai/ha): 0

Cc1nn(-c2ccc(Br)cc2)nc1Oc1ccnc(C(F)(F)F)c1 [Compound 53]
Plant response rating, Barnyardgrass (0 to 100 scale, 0 is no effect, 100 is complete control) ([1]; 250 g ai/ha): 60 | Corn plant response rating (corn (Zea mays); [11]): 30 | Corn plant response rating (corn (Zea mays); [15]): 40 | Plant response rating, Corn (corn (Zea mays); [16]): 0 | Plant response rating, Corn (corn (Zea mays); [17]): 20 | Crabgrass, Large plant response rating [2, 11]: 90 | Crabgrass, Large plant response rating [2, 15]: 90 | Plant response rating, Crabgrass, Large [2, 16]: 100 | Plant response rating, Crabgrass, Large [2, 17]: 100 | Foxtail, Giant plant response rating [3, 11]: 90 | Foxtail, Giant plant response rating [3, 15]: 90 | Plant response rating, Foxtail, Giant [3, 16]: 100 | Plant response rating, Foxtail, Giant [3, 17]: 100 | Wheat plant response rating [4, 11]: 20 | Wheat plant response rating [4, 15]: 30 | Plant response rating, Wheat [4, 16]: 10 | Plant response rating, Wheat [4, 17]: 30 | Plant response rating, Rice (0 to 100 scale, 0 is no effect, 100 is complete control) (rice (Oryza sativa); 250 g ai/ha): 50 | Pigweed plant response rating [5, 11]: 100 | Pigweed plant response rating [5, 15]: 100 | Plant response rating, Pigweed [5, 16]: 90 | Plant response rating, Pigweed [5, 17]: 100 | Barnyardgrass plant response rating [6, 11]: 90 | Barnyardgrass plant response rating [6, 15]: 90 | Plant response rating, Barnyardgrass [6, 16]: 80 | Plant response rating, Barnyardgrass [6, 17]: 100 | Velvetleaf plant response rating [7, 11]: 80 | Velvetleaf plant response rating [7, 15]: 100 | Plant response rating, Velvetleaf [7, 16]: 10 | Plant response rating, Velvetleaf [7, 17]: 50 | Plant response rating, Ducksalad (0 to 100 scale, 0 is no effect, 100 is complete control) ([8]; 250 g ai/ha): 85 | Plant response rating, Morningglory [9, 16]: 30 | Plant response rating, Morningglory [9, 17]: 40 | Plant response rating, Sedge, Umbrella (0 to 100 scale, 0 is no effect, 100 is complete control) ([10]; 250 g ai/ha): 85

Cc1nn(-c2ccc(F)cc2)nc1C(=O)c1ccnc(C(F)(F)F)c1 [Compound 167]
Plant response rating, Barnyardgrass (0 to 100 scale, 0 is no effect, 100 is complete control) ([1]; 125 g ai/ha): 0 | Corn plant response rating (corn (Zea mays); [18]): 30 | Plant response rating, Corn (corn (Zea mays); [19]): 30 | Crabgrass, Large plant response rating [2, 18]: 100 | Plant response rating, Crabgrass, Large [2, 19]: 100 | Foxtail, Giant plant response rating [3, 18]: 100 | Plant response rating, Foxtail, Giant [3, 19]: 100 | Wheat plant response rating [4, 18]: 40 | Plant response rating, Wheat [4, 19]: 80 | Plant response rating, Rice (0 to 100 scale, 0 is no effect, 100 is complete control) (rice (Oryza sativa); 125 g ai/ha): 30 | Pigweed plant response rating [5, 18]: 100 | Plant response rating, Pigweed [5, 19]: 100 | Barnyardgrass plant response rating [6, 18]: 100 | Plant response rating, Barnyardgrass [6, 19]: 100 | Velvetleaf plant response rating [7, 18]: 50 | Plant response rating, Velvetleaf [7, 19]: 20 | Plant response rating, Ducksalad (0 to 100 scale, 0 is no effect, 100 is complete control) ([8]; 125 g ai/ha): 0 | Morningglory plant response rating [9, 18]: 100 | Plant response rating, Sedge, Umbrella (0 to 100 scale, 0 is no effect, 100 is complete control) ([10]; 125 g ai/ha): 50

Cc1ccc(-n2nc(C)c(C(=O)c3cccc(C(F)(F)F)c3)n2)cc1 [Compound 44]
Plant response rating, Barnyardgrass (0 to 100 scale, 0 is no effect, 100 is complete control) ([1]; 250 g ai/ha): 0 | Corn plant response rating (corn (Zea mays); [11]): 30 | Corn plant response rating (corn (Zea mays); [15]): 30 | Plant response rating, Corn (corn (Zea mays); [16]): 0 | Plant response rating, Corn (corn (Zea mays); [17]): 20 | Crabgrass, Large plant response rating [2, 11]: 30 | Crabgrass, Large plant response rating [2, 15]: 40 | Plant response rating, Crabgrass, Large [2, 16]: 60 | Plant response rating, Crabgrass, Large [2, 17]: 90 | Foxtail, Giant plant response rating [3, 11]: 20 | Foxtail, Giant plant response rating [3, 15]: 30 | Plant response rating, Foxtail, Giant [3, 16]: 70 | Plant response rating, Foxtail, Giant [3, 17]: 90 | Wheat plant response rating [4, 11]: 20 | Wheat plant response rating [4, 15]: 30 | Plant response rating, Wheat [4, 16]: 0 | Plant response rating, Wheat [4, 17]: 30 | Plant response rating, Rice (0 to 100 scale, 0 is no effect, 100 is complete control) (rice (Oryza sativa); 250 g ai/ha): 0 | Pigweed plant response rating [5, 11]: 70 | Pigweed plant response rating [5, 15]: 90 | Plant response rating, Pigweed [5, 16]: 20 | Plant response rating, Pigweed [5, 17]: 90 | Barnyardgrass plant response rating [6, 11]: 20 | Barnyardgrass plant response rating [6, 15]: 20 | Plant response rating, Barnyardgrass [6, 16]: 0 | Plant response rating, Barnyardgrass [6, 17]: 30 | Velvetleaf plant response rating [7, 11]: 60 | Velvetleaf plant response rating [7, 15]: 70 | Plant response rating, Velvetleaf [7, 16]: 0 | Plant response rating, Velvetleaf [7, 17]: 50 | Plant response rating, Ducksalad (0 to 100 scale, 0 is no effect, 100 is complete control) ([8]; 250 g ai/ha): 0 | Morningglory plant response rating [9, 11]: 20 | Morningglory plant response rating [9, 15]: 70 | Plant response rating, Sedge, Umbrella (0 to 100 scale, 0 is no effect, 100 is complete control) ([10]; 250 g ai/ha): 0
